Reference: patent US5604234A, “Substituted thiol macrolactam immunomodulators” (Abbott Laboratories, priority 1995, dated 1997)

Each compound was assayed on human mixed lymphocyte reaction (MLR) (assay: human mixed lymphocyte reaction (MLR), serum free variation). Conditions: Homo sapiens, Lymphocyte, serum-free medium AIM V, Table 3.
Format: cell-based
Procedure: In vitro Assay of Biological Activity (Serum Free MLR)
The in viitro immunosuppressant activity of the compounds of the present invention can also be determined using a variation of the human mixed lymphocyte reaction (MLR) assay described by Kino, T. et al. in Transplantation Proceedings, XIX(5):36-39, Suppl. 6 (1987). In this assay, the cell culture was performed in a serum-free medium, AIM V (GibcoBRL Life Technologies, Grand Island, N.Y.), instead of the usual RPMI 1640 plus 10% heat-inactivated fetal bovine serum medium. The final cell concentrations of the responder and stimulator peripheral blood mononuclear cells were, respectively, 5×10^5/mL and 2×10^6/mL of cells pooled from four donors.

`CCC1C=C(C)CC(C)CC(OC)C2OC(O)(C(=O)C(=O)N3CCCCC3C(=O)OC(C(C)=CC3CCC(SCC(=O)N(C)O)C(OC)C3)C(C)C(O)CC1=O)C(C)CC2OC` (centres unmarked) [Example 39] and `CC[C@@H]1/C=C(\C)C[C@H](C)C[C@H](OC)[C@H]2O[C@@](O)(C(=O)C(=O)N3CCCC[C@H]3C(=O)O[C@H](/C(C)=C/[C@@H]3CC[C@H](SCC(C)=O)[C@H](OC)C3)[C@H](C)[C@@H](O)CC1=O)[C@H](C)C[C@@H]2OC` [Example 80] are within 1.5-fold of each other in IC50: 4.8 nM for the first, 4.3 nM for the second.

Going from `CCC1C=C(C)CC(C)CC(OC)C2OC(O)(C(=O)C(=O)N3CCCCC3C(=O)OC(C(C)=CC3CCC(SCC(C)C(=O)OC)C(OC)C3)C(C)C(O)CC1=O)C(C)CC2OC` (centres unmarked) [Example 40] to `CCOC(=O)C(C)CSC1CCC(C=C(C)C2OC(=O)C3CCCCN3C(=O)C(=O)C3(O)OC(C(OC)CC(C)CC(C)=CC(CC)C(=O)CC(O)C2C)C(OC)CC3C)CC1OC` (centres unmarked) [Example 41], the IC50 rises from 14.9 nM to 46.4 nM (3.1-fold).

Going from `CCC1C=C(C)CC(C)CC(OC)C2OC(O)(C(=O)C(=O)N3CCCCC3C(=O)OC(C(C)=CC3CCC(SCC(C)C(=O)OCc4ccccc4)C(OC)C3)C(C)C(O)CC1=O)C(C)CC2OC` (centres unmarked) [Example 42] to `CC[C@@H]1/C=C(\C)C[C@H](C)C[C@H](OC)[C@H]2O[C@@](O)(C(=O)C(=O)N3CCCC[C@H]3C(=O)O[C@H](/C(C)=C/[C@@H]3CC[C@H]([S+]([O-])CC(=O)OCc4ccccc4)[C@H](OC)C3)[C@H](C)[C@@H](O)CC1=O)[C@H](C)C[C@@H]2OC` (some centres unmarked) [Example 55], the IC50 falls from 63.4 nM to 8.1 nM (7.8-fold). The second is the more potent here.

First: CC[C@@H]1/C=C(\C)C[C@H](C)C[C@H](OC)[C@H]2O[C@@](O)(C(=O)C(=O)N3CCCC[C@H]3C(=O)O[C@H](/C(C)=C/[C@@H]3CC[C@H](SCC(C)C(=O)O)[C@H](OC)C3)[C@H](C)[C@@H](O)CC1=O)[C@H](C)C[C@@H]2OC (some centres unmarked) [Example 43]
Second: CC[C@@H]1/C=C(\C)C[C@H](C)C[C@H](OC)[C@H]2O[C@@](O)(C(=O)C(=O)N3CCCC[C@H]3C(=O)O[C@H](/C(C)=C/[C@@H]3CC[C@H](SC(=O)C(C)C)[C@H](OC)C3)[C@H](C)[C@@H](O)CC1=O)[C@H](C)C[C@@H]2OC [Example 86]
The IC50 of the first is 13-fold higher: 22.6 nM for the first, 1.7 nM for the second.

First: CC[C@@H]1/C=C(\C)C[C@H](C)C[C@H](OC)[C@H]2O[C@@](O)(C(=O)C(=O)N3CCCC[C@H]3C(=O)O[C@H](/C(C)=C/[C@@H]3CC[C@H]([S+]([O-])c4ccc(O)cc4)[C@H](OC)C3)[C@H](C)[C@@H](O)CC1=O)[C@H](C)C[C@@H]2OC (some centres unmarked) [Example 48]
Second: CC[C@@H]1/C=C(\C)C[C@H](C)C[C@H](OC)[C@H]2O[C@@](O)(C(=O)C(=O)N3CCCC[C@H]3C(=O)O[C@H](/C(C)=C/[C@@H]3CC[C@H](S(=O)(=O)c4ccc(O)cc4)[C@H](OC)C3)[C@H](C)[C@@H](O)CC1=O)[C@H](C)C[C@@H]2OC [Example 49]
The IC50 of the first is 2.8-fold lower: 0.9 nM for the first, 2.5 nM for the second. The first is the more potent here.

First: CC[C@@H]1/C=C(\C)C[C@H](C)C[C@H](OC)[C@H]2O[C@@](O)(C(=O)C(=O)N3CCCC[C@H]3C(=O)O[C@H](/C(C)=C/[C@@H]3CC[C@H]([S+]([O-])CCO)[C@H](OC)C3)[C@H](C)[C@@H](O)CC1=O)[C@H](C)C[C@@H]2OC (some centres unmarked) [Example 50]
Second: CC[C@@H]1/C=C(\C)C[C@H](C)C[C@H](OC)[C@H]2O[C@@](O)(C(=O)C(=O)N3CCCC[C@H]3C(=O)O[C@H](/C(C)=C/[C@@H]3CC[C@H]([S+]([O-])CCCO)[C@H](OC)C3)[C@H](C)[C@@H](O)CC1=O)[C@H](C)C[C@@H]2OC (some centres unmarked) [Example 52]
The IC50 of the first is 7.5-fold lower: 0.24 nM for the first, 1.8 nM for the second. The first is the more potent here.

Compared with `CC[C@@H]1/C=C(\C)C[C@H](C)C[C@H](OC)[C@H]2O[C@@](O)(C(=O)C(=O)N3CCCC[C@H]3C(=O)O[C@H](/C(C)=C/[C@@H]3CC[C@H](S(=O)(=O)CCO)[C@H](OC)C3)[C@H](C)[C@@H](O)CC1=O)[C@H](C)C[C@@H]2OC` [Example 51], `CC[C@@H]1/C=C(\C)C[C@H](C)C[C@H](OC)[C@H]2O[C@@](O)(C(=O)C(=O)N3CCCC[C@H]3C(=O)O[C@H](/C(C)=C/[C@@H]3CC[C@H](S(=O)(=O)CCCO)[C@H](OC)C3)[C@H](C)[C@@H](O)CC1=O)[C@H](C)C[C@@H]2OC` [Example 53] is 4.2-fold lower in IC50: 0.17 nM for the first, 0.04 nM for the second.

`CC[C@@H]1/C=C(\C)C[C@H](C)C[C@H](OC)[C@H]2O[C@@](O)(C(=O)C(=O)N3CCCC[C@H]3C(=O)O[C@H](/C(C)=C/[C@@H]3CC[C@H](S(=O)(=O)CC(=O)OCc4ccccc4)[C@H](OC)C3)[C@H](C)[C@@H](O)CC1=O)[C@H](C)C[C@@H]2OC` [Example 56] and `CC[C@@H]1/C=C(\C)C[C@H](C)C[C@H](OC)[C@H]2O[C@@](O)(C(=O)C(=O)N3CCCC[C@H]3C(=O)O[C@H](/C(C)=C/[C@@H]3CC[C@H](S(=O)(=O)CCC(=O)OCc4ccccc4)[C@H](OC)C3)[C@H](C)[C@@H](O)CC1=O)[C@H](C)C[C@@H]2OC` [Example 64] are within 1.5-fold of each other in IC50: 8.1 nM for the first, 9.2 nM for the second.

First: CC[C@@H]1/C=C(\C)C[C@H](C)C[C@H](OC)[C@H]2O[C@@](O)(C(=O)C(=O)N3CCCC[C@H]3C(=O)O[C@H](/C(C)=C/[C@@H]3CC[C@H](S(=O)(=O)CC(=O)OC)[C@H](OC)C3)[C@H](C)[C@@H](O)CC1=O)[C@H](C)C[C@@H]2OC [Example 57]
Second: CCOC(=O)CS(=O)(=O)[C@H]1CC[C@@H](/C=C(\C)[C@H]2OC(=O)[C@@H]3CCCCN3C(=O)C(=O)[C@]3(O)O[C@H]([C@@H](OC)C[C@@H](C)C/C(C)=C/[C@@H](CC)C(=O)C[C@H](O)[C@H]2C)[C@@H](OC)C[C@H]3C)C[C@H]1OC [Example 59]
The IC50 of the first is 3.8-fold lower: 2 nM for the first, 7.5 nM for the second.

`CC[C@@H]1/C=C(\C)C[C@H](C)C[C@H](OC)[C@H]2O[C@@](O)(C(=O)C(=O)N3CCCC[C@H]3C(=O)O[C@H](/C(C)=C/[C@@H]3CC[C@H](S(=O)(=O)CC(=O)OC(C)(C)C)[C@H](OC)C3)[C@H](C)[C@@H](O)CC1=O)[C@H](C)C[C@@H]2OC` [Example 58] and `CCOC(=O)CCS(=O)(=O)[C@H]1CC[C@@H](/C=C(\C)[C@H]2OC(=O)[C@@H]3CCCCN3C(=O)C(=O)[C@]3(O)O[C@H]([C@@H](OC)C[C@@H](C)C/C(C)=C/[C@@H](CC)C(=O)C[C@H](O)[C@H]2C)[C@@H](OC)C[C@H]3C)C[C@H]1OC` [Example 61] are within 1.5-fold of each other in IC50: 2.1 nM for the first, 2.5 nM for the second.

First: CCOC(=O)CC[S+]([O-])[C@H]1CC[C@@H](/C=C(\C)[C@H]2OC(=O)[C@@H]3CCCCN3C(=O)C(=O)[C@]3(O)O[C@H]([C@@H](OC)C[C@@H](C)C/C(C)=C/[C@@H](CC)C(=O)C[C@H](O)[C@H]2C)[C@@H](OC)C[C@H]3C)C[C@H]1OC (some centres unmarked) [Example 60]
Second: CC[C@@H]1/C=C(\C)C[C@H](C)C[C@H](OC)[C@H]2O[C@@](O)(C(=O)C(=O)N3CCCC[C@H]3C(=O)O[C@H](/C(C)=C/[C@@H]3CC[C@H]([S+]([O-])CCC(=O)N(O)C(C)C)[C@H](OC)C3)[C@H](C)[C@@H](O)CC1=O)[C@H](C)C[C@@H]2OC (some centres unmarked) [Example 72]
The IC50 of the first is 5.3-fold lower: 6.1 nM for the first, 32.2 nM for the second. The first is the more potent here.

Compared with `CC[C@@H]1/C=C(\C)C[C@H](C)C[C@H](OC)[C@H]2O[C@@](O)(C(=O)C(=O)N3CCCC[C@H]3C(=O)O[C@H](/C(C)=C/[C@@H]3CC[C@H]([S+]([O-])CCC(=O)OCc4ccccc4)[C@H](OC)C3)[C@H](C)[C@@H](O)CC1=O)[C@H](C)C[C@@H]2OC` (some centres unmarked) [Example 63], `CC[C@@H]1/C=C(\C)C[C@H](C)C[C@H](OC)[C@H]2O[C@@](O)(C(=O)C(=O)N3CCCC[C@H]3C(=O)O[C@H](/C(C)=C/[C@@H]3CC[C@H]([S+]([O-])CC(=O)O)[C@H](OC)C3)[C@H](C)[C@@H](O)CC1=O)[C@H](C)C[C@@H]2OC` (some centres unmarked) [Example 74] is 3.8-fold higher in IC50: 15 nM for the first, 57.7 nM for the second.

Going from `CC[C@@H]1/C=C(\C)C[C@H](C)C[C@H](OC)[C@H]2O[C@@](O)(C(=O)C(=O)N3CCCC[C@H]3C(=O)O[C@H](/C(C)=C/[C@@H]3CC[C@H](S(=O)(=O)CCC(=O)O)[C@H](OC)C3)[C@H](C)[C@@H](O)CC1=O)[C@H](C)C[C@@H]2OC` [Example 78] to `CC[C@@H]1/C=C(\C)C[C@H](C)C[C@H](OC)[C@H]2O[C@@](O)(C(=O)C(=O)N3CCCC[C@H]3C(=O)O[C@H](/C(C)=C/[C@@H]3CC[C@H](SC(=O)C(C)(C)C)[C@H](OC)C3)[C@H](C)[C@@H](O)CC1=O)[C@H](C)C[C@@H]2OC` [Example 85], the IC50 falls from 30 nM to 0.48 nM (62-fold). The second is the more potent here.

Compared with `C=CCS[C@H]1CC[C@@H](/C=C(\C)[C@H]2OC(=O)[C@@H]3CCCCN3C(=O)C(=O)[C@]3(O)O[C@H]([C@@H](OC)C[C@@H](C)C/C(C)=C/[C@@H](CC)C(=O)C[C@H](O)[C@H]2C)[C@@H](OC)C[C@H]3C)C[C@H]1OC` [Example 79], `CC[C@@H]1/C=C(\C)C[C@H](C)C[C@H](OC)[C@H]2O[C@@](O)(C(=O)C(=O)N3CCCC[C@H]3C(=O)O[C@H](/C(C)=C/[C@@H]3CC[C@H](SCC(C)=NO)[C@H](OC)C3)[C@H](C)[C@@H](O)CC1=O)[C@H](C)C[C@@H]2OC` [Example 83A] is 5-fold higher in IC50: 14 nM for the first, 70 nM for the second.

Going from `CC[C@@H]1/C=C(\C)C[C@H](C)C[C@H](OC)[C@H]2O[C@@](O)(C(=O)C(=O)N3CCCC[C@H]3C(=O)O[C@H](/C(C)=C/[C@@H]3CC[C@H](SCC(C)=NNC(N)=O)[C@H](OC)C3)[C@H](C)[C@@H](O)CC1=O)[C@H](C)C[C@@H]2OC` [Example 81A] to `CC[C@@H]1/C=C(\C)C[C@H](C)C[C@H](OC)[C@H]2O[C@@](O)(C(=O)C(=O)N3CCCC[C@H]3C(=O)O[C@H](/C(C)=C/[C@@H]3CC[C@H](SCC(C)=NOC)[C@H](OC)C3)[C@H](C)[C@@H](O)CC1=O)[C@H](C)C[C@@H]2OC` [Example 82], the IC50 rises from 1.3 nM to 64 nM (49-fold). The first is the more potent here.

Same assay, conditions: serum-free medium AIM V, Table 3

Going from `CC[C@@H]1/C=C(\C)C[C@H](C)C[C@H](OC)[C@H]2O[C@@](O)(C(=O)C(=O)N3CCCC[C@H]3C(=O)O[C@H](/C(C)=C/[C@@H]3CC[C@H](SCC(C)=NNC(N)=O)[C@H](OC)C3)[C@H](C)[C@@H](O)CC1=O)[C@H](C)C[C@@H]2OC` [Example 81B] to `CC[C@@H]1/C=C(\C)C[C@H](C)C[C@H](OC)[C@H]2O[C@@](O)(C(=O)C(=O)N3CCCC[C@H]3C(=O)O[C@H](/C(C)=C/[C@@H]3CC[C@H](SCC(C)=NO)[C@H](OC)C3)[C@H](C)[C@@H](O)CC1=O)[C@H](C)C[C@@H]2OC` [Example 83B], the IC50 rises from 1.6 nM to 67 nM (42-fold).
